The values that follow come from ChEMBL document CHEMBL1123518, “Synthesis and biological evaluation of irreversible inhibitors of aldose reductase” (J Med Chem, 1986).

Usually IC50 stands for the concentration needed to halve the response being measured. Low readings indicate higher potency, high ones lower potency. Usually inhibition stands for the relative decrease from the control value, in per cent.

Assay [1] addresses Aldo-keto reductase family 1 member B1 (Rattus norvegicus, UniProt P07943). Kind of assay: Compound was tested for 50% inhibitory concentration that was required for irreversible inhibition of aldose reductase.
Assay [2] deals with Aldo-keto reductase family 1 member B1 (Rattus norvegicus) (UniProt P07943). The assay can be described thus: Compound was tested for % inhibition against RLAR (aldose reductase) at a concentration of 10 micro M.
For assay [3] the target is unchanged. The assay can be described thus: Compound was tested for % inhibition against RLAR (aldose reductase)at a concentration of 10 uM, pre-incubated with 100 uM sorbinil.

`COC(=O)CN1C(=O)c2cccc3cc(N=C=S)cc(c23)C1=O`: 14 µM corresponded to half-maximal inhibition in assay [1] (IC50). Turning to `S=C=Nc1ccccc1`, the inhibition in assay [2] stood at 34%; in assay [3], 5%. With `[N-]=[N+]=Nc1cc2c3c(cccc3c1)C(=O)N(CC(=O)O)C2=O`, half-maximal inhibition in assay [1] (IC50) was put at 3.6 µM. Still for that read-out and setting: the value for `COC(=O)CN1C(=O)c2cccc3cc(N=[N+]=[N-])cc(c23)C1=O` was 38 µM. In the case of `O=C(O)CN1C(=O)c2cccc3cc(N=C=S)cc(c23)C1=O`, the inhibition in assay [2] came to 57%; in assay [3] it was 5%. This compound also came in with an IC50 in assay [1] of 0.3 µM.
